Experimental findings from ChEMBL document CHEMBL3393039, “Anthranilic acid derivatives as nuclear receptor modulators--development of novel PPAR selective and dual PPAR/FXR ligands” (Bioorg Med Chem, 2015) are described below.

Calls of active or inactive are those of the source. The calls are words filed in the database; no cut-off is given here.

The target of assay [1] is T1, Peroxisome proliferator-activated receptor delta (Homo sapiens) (UniProt Q03181).
T1 sequence (whole entry): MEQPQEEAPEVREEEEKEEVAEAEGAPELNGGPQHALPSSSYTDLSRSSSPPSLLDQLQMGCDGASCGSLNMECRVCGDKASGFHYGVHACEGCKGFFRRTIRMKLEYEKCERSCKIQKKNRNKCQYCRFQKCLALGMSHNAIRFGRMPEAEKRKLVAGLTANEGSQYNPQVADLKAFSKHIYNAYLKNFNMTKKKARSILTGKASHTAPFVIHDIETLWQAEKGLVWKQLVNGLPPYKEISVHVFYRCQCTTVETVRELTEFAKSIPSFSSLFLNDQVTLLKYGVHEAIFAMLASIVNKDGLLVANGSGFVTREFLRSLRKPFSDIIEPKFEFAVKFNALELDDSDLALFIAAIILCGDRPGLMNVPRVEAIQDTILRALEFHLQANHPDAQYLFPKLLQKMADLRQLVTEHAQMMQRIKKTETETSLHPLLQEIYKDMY
The assay is described as follows: Transactivation of Gal4-tagged PPARdelta ligand binding domain (unknown origin) expressed in COS7 cells measured after overnight incubation by luciferase reporter gene assay relative to L165,041. The class given is cell-based. The conditions noted are these: Chlorocebus aethiops; COS-7.

In assay [2] the target is T2, Peroxisome proliferator-activated receptor alpha (Homo sapiens, UniProt Q07869).
T2 sequence (Q07869 whole entry): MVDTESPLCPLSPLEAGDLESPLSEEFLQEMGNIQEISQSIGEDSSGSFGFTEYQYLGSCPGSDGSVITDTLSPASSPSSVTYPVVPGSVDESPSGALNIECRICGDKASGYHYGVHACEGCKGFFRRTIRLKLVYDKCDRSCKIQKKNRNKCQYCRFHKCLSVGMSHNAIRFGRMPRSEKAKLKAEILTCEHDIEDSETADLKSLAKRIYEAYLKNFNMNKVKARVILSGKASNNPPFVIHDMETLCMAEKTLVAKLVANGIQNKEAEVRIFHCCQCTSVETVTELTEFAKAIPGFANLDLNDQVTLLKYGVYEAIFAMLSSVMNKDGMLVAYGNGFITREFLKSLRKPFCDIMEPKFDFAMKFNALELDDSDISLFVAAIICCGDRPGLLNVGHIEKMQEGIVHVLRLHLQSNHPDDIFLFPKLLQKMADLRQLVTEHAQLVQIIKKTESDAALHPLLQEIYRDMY
The assay can be described thus: Transactivation of Gal4-tagged PPARalpha ligand binding domain (unknown origin) expressed in COS7 cells measured after overnight incubation by luciferase reporter gene assay. The class given is cell-based, COS-7. (In general: In a reporter assay the amount or activity of a reporter protein is the signal.)

Assay [3] has as its target T3, Peroxisome proliferator-activated receptor gamma (Homo sapiens, UniProt P37231).
T3 sequence (P37231 whole entry): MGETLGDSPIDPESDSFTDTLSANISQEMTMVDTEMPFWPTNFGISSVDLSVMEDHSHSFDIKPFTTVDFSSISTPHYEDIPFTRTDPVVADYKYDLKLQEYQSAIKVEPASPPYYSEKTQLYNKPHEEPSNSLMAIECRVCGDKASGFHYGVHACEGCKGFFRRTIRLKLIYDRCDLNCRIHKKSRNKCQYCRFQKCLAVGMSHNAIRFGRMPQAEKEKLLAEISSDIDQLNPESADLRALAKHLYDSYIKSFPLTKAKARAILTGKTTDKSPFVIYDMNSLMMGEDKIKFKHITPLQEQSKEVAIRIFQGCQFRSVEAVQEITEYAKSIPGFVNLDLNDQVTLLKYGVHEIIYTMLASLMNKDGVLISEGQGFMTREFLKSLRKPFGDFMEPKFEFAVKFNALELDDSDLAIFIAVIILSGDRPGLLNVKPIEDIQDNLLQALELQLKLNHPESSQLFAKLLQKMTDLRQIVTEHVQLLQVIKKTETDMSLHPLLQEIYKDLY
The assay is described as follows: Transactivation of Gal4-tagged PPARgamma ligand binding domain (unknown origin) expressed in COS7 cells measured after overnight incubation by luciferase reporter gene assay. The class given is cell-based, COS-7.

Assay [4] deals with T4, Peroxisome proliferator-activated receptor delta (Homo sapiens, UniProt Q03181).
T4 sequence (Q03181 whole entry): T1 sequence (whole entry)
The assay can be described thus: Transactivation of Gal4-tagged PPARdelta ligand binding domain (unknown origin) expressed in COS7 cells measured after overnight incubation by luciferase reporter gene assay. The class given is cell-based, COS-7.

Assay [5] has as its target T5, Bile acid receptor (Homo sapiens) (UniProt Q96RI1).
T5 sequence (whole entry): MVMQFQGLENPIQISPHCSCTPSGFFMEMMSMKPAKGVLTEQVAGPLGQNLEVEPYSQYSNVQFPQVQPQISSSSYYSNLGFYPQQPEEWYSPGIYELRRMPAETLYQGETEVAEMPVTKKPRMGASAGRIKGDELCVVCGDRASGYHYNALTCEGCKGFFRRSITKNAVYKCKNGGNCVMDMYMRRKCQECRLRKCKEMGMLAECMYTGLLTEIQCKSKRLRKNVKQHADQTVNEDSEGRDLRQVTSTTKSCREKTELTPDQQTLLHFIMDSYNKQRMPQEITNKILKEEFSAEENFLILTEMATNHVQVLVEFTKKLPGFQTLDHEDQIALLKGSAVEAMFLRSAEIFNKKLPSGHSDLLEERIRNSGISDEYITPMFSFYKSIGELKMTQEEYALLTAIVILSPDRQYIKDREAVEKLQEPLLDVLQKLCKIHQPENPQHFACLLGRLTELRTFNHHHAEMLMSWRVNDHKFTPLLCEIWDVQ
The assay is described as follows: Transactivation of human FXR expressed in human HeLa cells incubated for 24 hrs by luciferase reporter gene assay relative to GW4064. The format is cell-based.

The target of assay [6] is T6, Peroxisome proliferator-activated receptor gamma (Homo sapiens) (UniProt P37231).
T6 sequence (whole entry): T3 sequence (P37231 whole entry)
The assay is described as follows: Transactivation of Gal4-tagged PPARgamma ligand binding domain (unknown origin) expressed in COS7 cells measured after overnight incubation by luciferase reporter gene assay relative to piaglitazone. The format is cell-based. The conditions noted are these: Chlorocebus aethiops; COS-7.

In assay [7] the target is T7, Peroxisome proliferator-activated receptor alpha (Homo sapiens) (UniProt Q07869).
T7 sequence (whole entry): T2 sequence (Q07869 whole entry)
The assay is described as follows: Transactivation of Gal4-tagged PPARalpha ligand binding domain (unknown origin) expressed in COS7 cells at 30 uM measured after overnight incubation by luciferase reporter gene assay. The conditions noted are these: COS-7. The format is cell-based.

Assay [8] has as its target T6, Peroxisome proliferator-activated receptor gamma (Homo sapiens). The assay is described as follows: Transactivation of Gal4-tagged PPARgamma ligand binding domain (unknown origin) expressed in COS7 cells at 30 uM measured after overnight incubation by luciferase reporter gene assay. The format is cell-based. The following applies: COS-7.
For assay [9], the target named is T1, Peroxisome proliferator-activated receptor delta (Homo sapiens). The assay can be described thus: Transactivation of Gal4-tagged PPARdelta ligand binding domain (unknown origin) expressed in COS7 cells at 30 uM measured after overnight incubation by luciferase reporter gene assay. The class given is cell-based. The following applies: COS-7.
In assay [10] the target is T5, Bile acid receptor (Homo sapiens). The assay can be described thus: Transactivation of human FXR expressed in human HeLa cells at 30 uM incubated for 24 hrs by luciferase reporter gene assay. The format is cell-based.

By EC50 is commonly meant the midpoint of the concentration-response curve. A high value points to a less potent agent. With `CC(C)(C)c1ccc(C(=O)Nc2ccccc2C(=O)Nc2cccc(CC(=O)O)c2)cc1`, the max activation in [1] was determined as 46%; in assay [5] it was 26%; in [6] it was 121%. The EC50 in assay [2] came out at 4.4 µM; in assay [3], 6.2 µM; in assay [4], 5.4 µM.

For `O=C(O)c1cccc(NC(=O)c2ccccc2NC(=O)c2ccc(Br)cc2)c1`, the max activation in [1] worked out at 44%; in assay [5] it was 14.3%; in assay [6], 58%. Moreover, the EC50 in assay [2] is 3.6 µM; in assay [3], 4.5 µM; in [4], 12 µM.

In the case of `CC(C)(C)c1ccc(C(=O)Nc2ccccc2C(=O)Nc2cccc(C#N)c2)cc1`, the outcome in assay [7], in assay [8] and in [9] was inactive. The max activation in [5] amounted to 18%.

For the compound `COc1ccc(C(=O)Nc2ccccc2C(=O)Nc2cccc(CC(=O)O)c2)cc1OC`, the outcome in assay [10], in assay [7], in assay [8] and in assay [9] was inactive.

With `COc1ccc(C(=O)O)cc1NC(=O)c1ccccc1NC(=O)c1ccc(C(C)(C)C)cc1`, in [9], the outcome was inactive. Also, the EC50 in assay [2] turned out to be 2.9 µM; in [3], 4.5 µM. The max activation amounted to 15% in assay [5] and 154% in assay [6].

On to `COc1cccc(NC(=O)c2ccccc2NC(=O)c2ccc(C(C)(C)C)cc2)c1`, for which the result in assay [7], in assay [8] and in assay [9] was inactive. In [5], the max activation came to 13%.

For `CC(C)(C)c1ccc(C(=O)Nc2ccccc2C(=O)Nc2cccc(C(=O)O)c2)cc1`, the result in assay [9] was inactive. The EC50 worked out at 1.3 µM in assay [2] and 3.9 µM in [3]. Moreover, the results for the max activation in assay [5] and in assay [6] were 9.4% and 348%, respectively.

Turning to `O=C(O)CCCNC(=O)c1ccccc1NC(=O)c1ccc(-c2ccccc2)cc1`, the result in [10], in [7] and in [9] was inactive. In assay [3], this compound yielded a concentration giving a half-maximal response (EC50) of 13 µM. In assay [6], this compound displayed a max activation of 135%.

As to `Cc1c(NC(=O)c2ccccc2NC(=O)c2ccc(C(C)(C)C)cc2)cccc1C(=O)O`, the outcome in assay [7] and in assay [9] was inactive. Also, in assay [3], the half-maximal effective concentration (EC50) was 13.5 µM. In addition, the values for the max activation in assay [5] and in [6] were 19% and 70%, respectively.

As for `COc1ccc(NC(=O)c2ccccc2NC(=O)c2ccc(C(C)(C)C)cc2)cc1C(=O)O`, the result in [9] was inactive. Also, the half-maximal effective concentration (EC50) amounted to 0.74 µM in assay [2] and 4.4 µM in [3]. Besides, the max activation came to 19% in assay [5] and 96% in [6].

Regarding `CC(C)(C)c1ccc(C(=O)Nc2ccccc2C(=O)Nc2ccc(Cl)c(C(=O)O)c2)cc1`, the outcome in [9] was inactive. In addition, the EC50 in assay [2] was 9.1 µM; in assay [3], 5.4 µM. Further, the values for the max activation in assay [5] and in assay [6] were 19% and 98%, respectively.

As to `O=C(O)CCCNC(=O)c1ccccc1NC(=O)c1ccc2ccccc2c1`, the result in [7] and in assay [9] was inactive. In assay [3], this compound came in with an EC50 of 18.1 µM. Moreover, the max activation in assay [6] is 432%.

For `CC(C)(C)c1ccc(C(=O)Nc2ccccc2C(=O)NCCCC(=O)O)cc1`, the result in [7], in [8] and in assay [9] was inactive.

As to `CC(C)(C)c1ccc(C(=O)Nc2ccccc2C(=O)Nc2ccc(Br)c(C(=O)O)c2)cc1`, the result in assay [9] was inactive. Besides, the values for the EC50 in assay [2] and in [3] were 4.1 µM and 6.3 µM, respectively. The max activation turned out to be 16% in assay [5] and 82% in [6].

For `O=C(O)c1cccc(NC(=O)c2ccccc2NC(=O)c2ccc3ccccc3c2)c1`, the results for the max activation in assay [1] and in [6] were 51% and 126%, respectively. For the same compound, the EC50 in assay [2] was found to be 1.96 µM; in assay [3], 5.5 µM; in [4] it was 4.7 µM.

Regarding `O=C(O)c1cccc(NC(=O)c2ccccc2NC(=O)c2ccc3c(c2)OCO3)c1`, the result in assay [9] was inactive. Besides, the EC50 came out at 19 µM in assay [2] and 25 µM in [3]. In addition, the max activation in assay [5] amounted to 12%; in assay [6] it was 221%.

In the case of `O=C(O)c1cccc(NC(=O)c2ccccc2NC(=O)c2ccc(C(F)(F)F)c(F)c2)c1`, the max activation in assay [1] was 37%; in [5], 32%; in assay [6], 240%. Besides, the EC50 in assay [2] came out at 2.2 µM; in [3] it was 6.9 µM; in assay [4], 3 µM.

Consider `O=C(O)CCCNC(=O)c1ccccc1NC(=O)c1cccc(-c2ccccc2)c1`, for which the result in [10] and in [9] was inactive. Further, the EC50 in assay [2] is 10 µM; in assay [3] it was 37 µM. This compound returned a max activation in [6] of 229%.

For `O=C(O)CCCNC(=O)c1ccccc1NC(=O)c1ccccc1-c1ccccc1`, the result in assay [10], in assay [7] and in [9] was inactive. The same compound returned a 50% effective concentration (EC50) in assay [3] of 23 µM. In assay [6], this compound gave a max activation of 45%.

With `O=C(O)c1cccc(NC(=O)c2ccccc2NC(=O)c2ccc(C(F)(F)F)cc2)c1`, the results for the max activation in assay [1], in assay [5] and in [6] were 46%, 26% and 384%, respectively. Also, the concentration for a half-maximal effect (EC50) in assay [2] was 5.8 µM; in [3] it was 8.5 µM; in assay [4], 3.2 µM.

For `O=C(O)c1ccc(NC(=O)c2ccccc2NC(=O)c2ccc3ccccc3c2)cc1`, the result in assay [7] and in assay [9] was inactive. Also, in [3], the EC50 was found to be 21 µM. This compound came in with a max activation in [6] of 639%.

In the case of `O=C(O)CCCCNC(=O)c1ccccc1NC(=O)c1ccc2ccccc2c1`, the outcome in assay [7] and in assay [9] was inactive. This compound came in with an EC50 in assay [3] of 26 µM. In addition, in assay [6], the max activation came to 269%.
